{"source": "patent US7588929B2", "about": "“Production of bacteriophage compositions for use in phage therapy” (Phage Biopharm LLC, priority 2002, dated 2009)", "origin": "cited, not measured here", "data": [{"tested_on": "phage-2 inactivation by BI-LPS", "conditions": "inactivation 95% in controls without sugar", "values": [{"smiles": "O=CC[C@@H](O)[C@H](O)[C@H](O)CO", "note": "[2-deoxy-D-glucose]", "concentration reducing inactivation to 50%": "1 M"}, {"smiles": "O=C[C@H](O)[C@@H](O)[C@@H](O)[C@H](O)CO", "note": "[D-galactose]", "concentration reducing inactivation to 50%": "about 1.4 M"}, {"smiles": "N[C@H]1C(O)O[C@H](CO)[C@@H](O)[C@@H]1O", "note": "(stereo partly drawn) [D-glucosamine]", "concentration reducing inactivation to 50%": "0.25-0.3 M"}, {"smiles": "O=C[C@H](O)[C@@H](O)[C@H](O)[C@H](O)CO", "note": "[D-glucose]", "concentration reducing inactivation to 50%": "1 M"}, {"smiles": "O=C[C@@H](O)[C@@H](O)[C@H](O)[C@H](O)CO", "note": "[D-mannose]", "concentration reducing inactivation to 50%": "1 M"}, {"smiles": "O=C[C@H](O)[C@@H](O)[C@H](O)CO", "note": "[D-xylose]", "concentration reducing inactivation to 50%": "about 1.4 M"}, {"smiles": "C[C@H](O)[C@H](O)[C@@H](O)[C@@H](O)C=O", "note": "[L-rhamnose]", "concentration reducing inactivation to 50%": "1 M"}, {"smiles": "CC(=O)N[C@H]1C(O)O[C@H](CO)[C@@H](O)[C@@H]1O", "note": "(stereo partly drawn) [N-acetyl-D-glucosamine]", "concentration reducing inactivation to 50%": "about 1.4 M"}]}]}
